Measured values taken from ChEMBL document CHEMBL1152598, “Synthesis and dopaminergic activity of some E-3-(piperidin-1-yl)-1-(4-substituted phenyl)prop-2-en-1-one derivatives” (2009).
Active and inactive are the calls of the source. The calls are words filed in the database; no cut-off is given here.

Assays:
Rattus norvegicus [1] = assay: Dopaminergic activity in apomorphine-induced Wistar rat assessed as licking count at 30 mg/kg, ip treated 15 mins before apomorphine challenge measured after 10 mins for 60 mins by behavioral study; conditions: route intraperitoneal
Rattus norvegicus [2] = assay: Effect on dopaminergic activity in apomorphine-induced Wistar rat assessed as licking count at 10 to 30 mg/kg, ip treated 15 mins before apomorphine challenge measured after 10 mins for 60 mins by behavioral study
Rattus norvegicus [3] = assay: Dopaminergic activity in apomorphine-induced Wistar rat assessed as licking count at 0.5 mg/kg, iv treated 15 mins before apomorphine challenge measured after 10 mins for 60 mins by behavioral study; assay type: functional

SMILES | Activity (Rattus norvegicus [1]) | Activity (Rattus norvegicus [2]) | Activity (Rattus norvegicus [3])
COc1ccc(C(=O)/C=C/N2CCC(O)(c3ccc(Cl)cc3)CC2)c(O)c1 | 1575 | – | –
O=C(/C=C/N1CCC(O)(c2ccccc2)CC1)c1ccc(O)cc1O | 1317 | – | –
O=C(/C=C/N1CCC(O)(c2ccc(Cl)cc2)CC1)c1ccc(O)cc1O | 115 | Active | –
COc1ccc(C(=O)/C=C/N2CCC(O)(c3ccc(Br)cc3)CC2)c(O)c1 | 1140 | – | –
O=C(/C=C/N1CCC(c2ccc(O)cc2)CC1)c1ccc(O)cc1O | 664 | – | –
COc1ccc(C(=O)/C=C/N2CCC(O)(c3ccc(O)cc3)CC2)c(O)c1 | 2675 | – | –
COc1ccc(C(=O)/C=C/N2CCC(Cc3ccccc3)CC2)c(O)c1 | 520 | – | –
COc1ccc(C(=O)/C=C/N2CCC(O)(c3ccccc3)CC2)c(O)c1 | 1800 | – | –
O=C(/C=C/N1CCC(O)(c2ccc(O)cc2)CC1)c1ccc(O)cc1O | 1450 | – | –
O=C(CCCN1CCC(O)(c2ccc(Cl)cc2)CC1)c1ccc(F)cc1 [HALOPERIDOL] | – | – | 3.667
COc1ccc(C(=O)/C=C/N2CCC(c3ccc(O)cc3)CC2)c(O)c1 | 1325 | – | –
O=C(/C=C/N1CCC(Cc2ccccc2)CC1)c1ccc(O)cc1O | 618 | – | –
O=C(/C=C/N1CCC(O)(c2ccc(Br)cc2)CC1)c1ccc(O)cc1O | 1860 | – | –
